How the values were obtained:
MCF7 cells = experiment: Micronuclei formation, MCF7; format: cell-based; details: MCF7, 40 μM Ru1, 24 h incubation
Experimental: (§1) Microscopy and immunofluorescence. Cells were seeded on ibidi 35 mm µ-dishes (Thistle Scientific), allowed to adhere for 24 h and treated as stated in the main text. Cell media was removed, cells washed with PBS and fixed with formaldehyde (4%, 10 mins). Cells were permeablised with Triton (0.5% in PBS, 5 mins) and washed with PBS. Samples were blocked with BSA (3% in PBS-T) for 1 h before incubation with primary antibody (either anti-α-tubulin or anti-γ H2AX, 1/500 dilution) in BSA (3% in PBS-T) for 1 h. Samples were washed 3x in PBS-T and incubated with Alexa Fluor-conjugated secondary antibodies (3% in PBS-T, 1 h, 1/250 dilution). After further washing (3x5 min PBS-T) samples were co-stained with DAPI (5 ng/ml, 2 min), fresh PBS added and visualised by confocal microscopy. Samples were visualised using a Zeiss LSM 780 or LSM 710 inverted confocal microscope and EC Plan-Neofluar 40x/1.30 Oil objectives. […]
(§2) For the determination of mutation induction, from the untreated and each treated condition, 2x10^5 cells were plated in 10 x 100 mm dishes in selective media (regular media

[1] = tested on: FLO-1 human oesophageal adenocarcinoma; experiment: MTT assay, FLO-1 cells; format: cell-based
Experimental: MTT assay. OE21, FLO-1 or hSAEC1-KT cells were seeded in 96 well plates at 20,000 cells/well (for 24 h treatment) or 10,000 cells/well (for 72 h treatment) and allowed to adhere for 24 h before treatment. OE33 cells were seeded in 48 well plates at 40,000 cells/well (24 h treatment) or 20,000 cells/well (72 h treatment). Cancer cell lines were treated with chemicals dissolved in RPMI media for consistency. After incubation, 0.5 mg/ml MTT (thiazolyl blue tetrazolium bromide) dissolved in serum-free medium was added for 60 minutes and the formazan product eluted using acidified isopropanol.
The absorbance at 540 nm was quantified by plate reader (reference wavelength 650 nm). The metabolic activity of the cell population was determined as a percentage of a negative (solvent) control. […]
as §2

FLO-1 cells = experiment: Micronuclei formation, FLO-1; format: cell-based, human; details: FLO-1, 44 μM Ru1, 24 h incubation
Experimental: as §1, §2

OE21 cells [2] = experiment: DNA fibre assay (replication fork progression); format: cell-based, human; details: Ru1 21 μM or dppz 7 μM during second (IdU) pulse, 30 min
Experimental: DNA fibre assay. The DNA fibre assay was performed as described previously.5 Briefly, OE21 cells were labelled with 30 µM CldU for 30 mins and then 250 µM IdU for an additional 30 mins. Either Ru1 (21 µM) or dppz (7 µM) was added during the second (IdU) nucleotide step (30 mins). DNA replication was terminated using ice-cold PBS and cells lysed (200 mM Tris-HCl pH 7.4, 50 mM EDTA and 0.5% SDS). DNA fibres were spread onto glass slides, fixed with methanol:acetic acid (3:1) and denatured with 2.5 M HCl. After blocking with 2% BSA, fibres were stained with anti-rat and anti-mouse 5-bromo-2′- deoxyuridine (BrdU) that specifically recognise either CldU (Abcam, dilution 1:500) or IdU (BD Sciences, 1:100). Anti-rat Cy3 (Jackson Immuno Research, 1:300) and anti-mouse Alexa-488 (Molecular Probes, 1:300) were used as the respective secondary antibodies. CldU- and IdU-labelled tracts were visualised using a Leica DMRB microscope with a DFC360FX camera and tract length measured by ImageJ software. Statistical analysis was performed by GraphPad Prism software using an unpaired t-test.
Western blotting. Treated samples were washed with cold PBS and lysed in RIPA (radioimmunoprecipitation assay) buffer containing protease inhibitors (10 μg/mL leupeptin, 2 μg/mL pepstatin, 50 μg/mL antipain, 2 μg/mL aprotinin, 20 μg/mL chyprostatin, 2 μg/mL benzamidine, 1 mM phenylmethanesulfonyl fluoride) and phosphatase inhibitors (50 mM NaF, 1 mM […]
Bis-Tris gels and LDS-PAGE. Gels were transferred onto nitrocellulose membrane and probed with primary antibodies in 5% BSA (bovine serum albumin) solutions at the following dilutions: 1/1000 dilution for majority of Cell Signaling antibodies and γH2AX. 1/500 for anti-p-ATR and anti-cleaved caspase 3. 1/200 anti-Chk1. 1/5000-1/10,000 anti- α-tubulin or β-actin.
Reactions were visualised with a suitable secondary antibody conjugated with horseradish peroxidase (1/5000 dilution, Thermo). […]

OE21 cells [3] = experiment: Quantification of aberrant mitoses (CLSM); format: cell-based, human; details: OE21, IC50 concentration, 24 h
Experimental: as §1, §2

[4] = tested on: OE21, OE33 or FLO-1 cells; experiment: Clonogenic survival assay with IR, three oesophageal cancer cell lines; format: cell-based, human
Experimental: Clonogenic survival assay. OE21, OE33 or FLO1 cells were treated with 2 µM Ru1 for 24 h before irradiation with 0-8 Gy using a 137Cs γ-irradiator (IBL637, CIS Bio Int.; dose rate = 0.809 Gy min−1). 1 h after irradiation, cells were detached using Trypsin and re-seeded in 6 well plates at a density of 300 – 20,000 cells/well in triplicate in an incrementally greater number of cells with increasing IR dose to ensure adequate colony formation. Cells were incubated for 7–14 days after re-seeding to allow colony formation before being fixed with 10% methanol, 10% acetic acid and stained with 0.4% methylene blue. OE33 cells required an additional formaldehyde fixation (4% in PBS, 5 mins) step before the addition of methylene blue solution or colony detachment occurred. Colonies containing 50 cells or greater were counted using a Gelcount instrument and accompanying software (Oxford Optronix). Plating efficiencies were determined for each treatment condition and normalised to an untreated control to provide the surviving fraction (S. F.). S.F. versus radiation dose curves were plotted in GraphPad Prism and fit using a second order polynomial function (R2 values > 0.99). Dose modifying factors (DMF) at a SF=0.1 were calculated using the equation: Dose modifying factor (DMF) = IR dose to give S.F. 0.1/IR dose plus compound to give S.F.0.1. […]

In the case of [Ru(phen)2(tpphz)]^2+ [Ru1], the “Cells with micronuclei, Percentage” value (MCF7 cells) is reported as 6.2%, the IC50 ([1]; FLO1, 24 h constant exposure) is reported as 42 ± 8 µM and the IC50 ([1]; FLO1, 72 h constant exposure) is reported as 11.5 ± 2.1 µM. For the same substance, the “Cells with micronuclei, Percentage” value (FLO-1 cells) was 3.3%, the “increase in completely stalled/terminated replication forks (CldU tract only) compared to mock-treated” value (OE21 cells [2]) was 1.7 fold and the “mitotic aberrations, share of total cell population” value (OE21 cells [3]) was ~8%. For the same substance, the “surviving fraction (S.F.), single-agent” value ([4]; 2 μM, 24 h, no IR, all three cell lines) was > 0.87 and the “dose modification factor (DMF) at surviving fraction of 0.1” value ([4]; Ru1 2 μM or sub-cytotoxic cisplatin (500 nM OE21 and OE33, 300 nM FLO-1), 24 h before IR, range over three cell lines) was 1.19–1.31.

— publication PMC5870190, “A three-in-one-bullet for oesophageal cancer: replication fork collapse, spindle attachment failure and enhanced radiosensitivity generated by a ruthenium(II) metallo-intercalator” (Chemical Science, 2017)
